Experiments:
[1] = test system: living oral carcinoma cells (SqCHN); assay: Selective toxicity, cell killing of carcinoma cells over 8 days; assay type: cell-based; details: for selective toxicity towards carcinoma cells: carcinoma cells compared to normal oral epithelial cells; for cell death of carcinoma cells: incubated with dye fraction, washed, observed over 8 days
Experimental: (§1) The compounds represented by peaks 5, 6, 7 and 8, obtained during the fractionation of the toluidine blue O, are analyzed for their selective toxicity towards living oral carcinoma cells (SqCHN) compared to living normal oral epithelial cells. Separate cultures of squamous carcinoma cells and normal epithelial cells are incubated with the different dye fractions and then washed with dye-free medium. The cells are then re-incubated in growth medium and observed over a period of 8 days to determine the extent of cell killing. The compound of peak 6 results in 95% cell death of carcinoma cells, compared to only about 20% killing of normal cells.

[2] = test system: living normal oral epithelial cells; assay: Selective toxicity, cell killing of normal cells over 8 days; assay type: cell-based; details: incubated with dye fraction, washed, observed over 8 days
Experimental: as §1

[3] = test system: other squamous carcinomas, adenocarcinomas, lymphomas and sarcomas; assay: Further in-vitro tests with other isolates of carcinoma cells and normal epithelial cells; assay type: cell-based; details: conducted in the manner of Example 8
Experimental: (§2) The therapeutic characteristics of the compounds of peaks 6 and 8 are determined by further in-vitro tests, conducted in the manner of Example 8, using other isolates of carcinoma cells and normal epithelial cells. The testing profile includes other squamous carcinomas of the head and neck, esophagus, lung, cervix and skin, as well as other types of cancers, including adenocarcinomas, lymphomas and sarcomas. In-vivo “delay of tumor growth” and “tumor regression assay” tests using tumor-bearing animals, including head and neck and lung carcinomas implanted in Balb-C mice, are made to analyze the in-vivo therapeutic benefit of these compounds.

[4] = test system: head and neck and lung carcinomas implanted in Balb-C mice; assay: In-vivo delay of tumor growth and tumor regression assay; details: tumor-bearing Balb-C mice
Experimental: as §2

[5] = test system: carcinoma cells; assay: Uptake and retention of mitochondrial marking agents in living carcinoma cells; assay type: cell-based; details: 5 minute incubation, rinsed twice with 1% acetic acid, 2-butanol extraction, spectrophotometry
Experimental: Different concentrations of the various cationic marking agents, at 100, 50, 10 and 1 μg/ml are prepared in RPMI medium complete with 20% fetal calf serum, 1 mM glutamine, hydrocortisone, insulin, transferrin, estradiol, selenium and growth hormone.
The carcinoma cells are incubated at 37EC in tissue culture incubators with 5% CO2 and 95% relative humidity, for 5 minutes with each agent and concentration there and then rinsed twice using 2 minute incubations with 1% acetic acid. After incubation and rinsing, the cells are harvested, at 30 min., 1 hour, 2 hours, 4 hours and 8 hours. The cells are then extracted with 2-butanol and analyzed by spectrophotometry for quantitation of the marking agent.

SMILES	selective toxicity towards carcinoma cells [1]	cell death of carcinoma cells [1]	killing of normal cells [2]	selective toxicity to the wider variety of cancer cell types, in vitro [3]	selective toxicity, in-vivo therapeutic benefit [4]	saturation concentration [5]
CNc1ccc2nc3ccc(N)c(C)c3[s+]c2c1 [peak 5]	do not exhibit the same selective toxicity	–	–	–	–	–
CNc1ccc2nc3cc(C)c(N)cc3[s+]c2c1 [peak 6]	selectively toxic towards carcinoma cells	95%	about 20%	confirm the selective toxicity	confirm the selective toxicity	–
Cc1c(N)ccc2nc3ccc(N(C)C)cc3[s+]c12 [peak 7]	do not exhibit the same selective toxicity	–	–	–	–	–
Cc1cc2nc3ccc(N(C)C)cc3[s+]c2cc1N [peak 8]	selectively toxic towards carcinoma cells	89%	about 20%	confirm the selective toxicity	confirm the selective toxicity	–
Cc1cc2nc3ccc(N(C)C)cc3[s+]c2cc1N.[Cl-] [toluidine blue O]	–	–	–	–	–	≥ 10 µg/mL
